Measurements reported in patent US9833497B2, “Human originated EGF domain proteins and use of the same” (CHENGDU SOURCEBIO LIMITED-LIABILITY COMPANY, priority 2013, dated 2017).

Experiments:
Format in all cases: cell-based
[1] = test system: Moraxella catarrhalis; experiment: MIC against Gram-negative bacteria: Moraxella catarrhalis; conditions: 5×10^5 CFU/mL; for MIC against M. catarrhalis: Moraxella catarrhalis; for MIC M. catarrhalis: two-fold serial dilution
Outline: (§1)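 Growth inhibition by human EGF domain proteins was scored in LB liquid culture seeded at 5×10^5 CFU/mL. Protein was applied as a two-fold dilution series in triplicate, with shaking incubation at 37° C; MIC is the lowest concentration giving no growth.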

[2] = test system: Proteus vulgaris; experiment: MIC against Gram-negative bacteria: Proteus vulgaris; conditions: 5×10^5 CFU/mL; for MIC against P. vulgaris: Proteus vulgaris; for MIC P. vulgaris: two-fold serial dilution
Outline: as §1

[3] = test system: Citrobacter diversus; experiment: MIC against Gram-negative bacteria: Citrobacter diversus; conditions: 5×10^5 CFU/mL; for MIC against C. diversus: Citrobacter diversus; for MIC C. diversus: two-fold serial dilution
Outline: as §1

[4] = test system: Enterobacter cloacae; experiment: MIC against Gram-negative bacteria: Enterobacter cloacae; conditions: 5×10^5 CFU/mL; for MIC against E. cloacae: Enterobacter cloacae; for MIC E. cloacae: two-fold serial dilution
Outline: as §1

[5] = test system: Aeromonas hydrophila; experiment: MIC against Gram-negative bacteria: Aeromonas hydrophila; conditions: 5×10^5 CFU/mL; for MIC against A. hydrophila: Aeromonas hydrophila; for MIC A. hydrophila: two-fold serial dilution
Outline: as §1

[6] = test system: Klebsiella pneumonia; experiment: MIC against Gram-negative bacteria: Klebsiella pneumonia; conditions: 5×10^5 CFU/mL; for MIC against K. pneumonia: Klebsiella pneumonia; for MIC K. pneumonia: two-fold serial dilution
Outline: as §1

[7] = test system: E. coli BL21; experiment: MIC against Gram-negative bacteria: E. coli BL21; conditions: 5×10^5 CFU/mL; for MIC E. coli BL21: two-fold serial dilution
Outline: as §1

[8] = test system: Serratia marcescens; experiment: MIC against Gram-negative bacteria: Serratia marcescens; conditions: 5×10^5 CFU/mL; for MIC against S. marcescens: Serratia marcescens; for MIC S. marcescens: two-fold serial dilution
Outline: as §1

[9] = test system: Pseudomonas aeruginosa; experiment: MIC against Gram-negative bacteria: Pseudomonas aeruginosa; conditions: 5×10^5 CFU/mL; for MIC against P. aeruginosa: Pseudomonas aeruginosa; for MIC P. aeruginosa: two-fold serial dilution
Outline: as §1

[10] = test system: E. coli DH5α; experiment: Antibacterial activity: MIC and growth curve against E. coli DH5α in 96-well plate; conditions: minimal inhibitory concentration against E. coli DH5α; 96-well plate, 5×10^5 CFU/mL, 37° C., judged after 8 h
Outline: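 Log-phase DH5α (OD600 about 0.5, 37° C, 185 rpm in LB) was pelleted, resuspended in fresh LB and seeded at 5×10^5 CFU/mL with recombinant protein at 50, 25 and 12.5 μg/mL (two-fold series), in triplicate. Plates were shaken at 175 rpm, 37° C, and OD600 was read every 30 min. MIC was the lowest concentration with no growth.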

[11] = test system: Proteus mirabilis; experiment: MIC against Gram-negative bacteria: Proteus mirabilis; conditions: 5×10^5 CFU/mL; for MIC against P. mirabilis: Proteus mirabilis; for MIC P. mirabilis: two-fold serial dilution
Outline: as §1

PRT1321 (AIDECELDMRGGCHTDALCSYVGPGQSRCTCKLGFAGDGYQCS; listed as Homo sapiens)
25 µg/mL: MIC against K. pneumonia ([6]; 96-well plate, 37° C., 10 h)
12.5 µg/mL: MIC against C. diversus ([3]; 96-well plate, 37° C., 10 h) | MIC against E. cloacae ([4]; 96-well plate, 37° C., 10 h) | MIC against E. coli BL21 ([7]; 96-well plate, 37° C., 10 h) | MIC against S. marcescens ([8]; 96-well plate, 37° C., 10 h) | MIC against P. mirabilis ([11]; 96-well plate, 37° C., 10 h)
100 µg/mL: MIC against P. vulgaris ([2]; 96-well plate, 37° C., 10 h)
50 µg/mL: MIC against M. catarrhalis ([1]; 96-well plate, 37° C., 10 h) | MIC against A. hydrophila ([5]; 96-well plate, 37° C., 10 h) | MIC against P. aeruginosa ([9]; 96-well plate, 37° C., 10 h) | MIC [10]

PRT1125 (LCDQCVTSPGCLHGLCGEPGQCICTDGWDGELCD; listed as Homo sapiens)
12.5 µg/mL: MIC M. catarrhalis ([1]; 10 h cultivation at 37° C.) | MIC P. vulgaris ([2]; 10 h cultivation at 37° C.) | MIC C. diversus ([3]; 10 h cultivation at 37° C.) | MIC E. cloacae ([4]; 10 h cultivation at 37° C.) | MIC A. hydrophila ([5]; 10 h cultivation at 37° C.) | MIC K. pneumonia ([6]; 10 h cultivation at 37° C.) | MIC E. coli BL21 ([7]; 10 h cultivation at 37° C.) | MIC P. aeruginosa ([9]; 10 h cultivation at 37° C.) | MIC P. mirabilis ([11]; 10 h cultivation at 37° C.)
25 µg/mL: MIC S. marcescens ([8]; 10 h cultivation at 37° C.) | MIC [10]

PRT1075 (EVNKCSRCLEGACVVNKQSGDVTCNCTDGRVAPSCL; listed as Homo sapiens)
50 µg/mL: MIC C. diversus ([3]; 10 h cultivation at 37° C.) | MIC K. pneumonia ([6]; 10 h cultivation at 37° C.) | MIC S. marcescens ([8]; 10 h cultivation at 37° C.) | MIC P. mirabilis ([11]; 10 h cultivation at 37° C.)
12.5 µg/mL: MIC P. vulgaris ([2]; 10 h cultivation at 37° C.) | MIC E. coli BL21 ([7]; 10 h cultivation at 37° C.)
25 µg/mL: MIC M. catarrhalis ([1]; 10 h cultivation at 37° C.) | MIC E. cloacae ([4]; 10 h cultivation at 37° C.) | MIC A. hydrophila ([5]; 10 h cultivation at 37° C.) | MIC P. aeruginosa ([9]; 10 h cultivation at 37° C.) | MIC [10]

PRT1347 (NVDECLSQPCKNGATCKDGANSFRCLCAAGFTGSHCE; listed as Homo sapiens)
25 µg/mL: MIC against M. catarrhalis ([1]; 10 h cultivation at 37° C.) | MIC against E. cloacae ([4]; 10 h cultivation at 37° C.) | MIC against A. hydrophila ([5]; 10 h cultivation at 37° C.) | MIC against P. aeruginosa ([9]; 10 h cultivation at 37° C.) | MIC [10]
100 µg/mL: MIC against P. vulgaris ([2]; 10 h cultivation at 37° C.)
50 µg/mL: MIC against K. pneumonia ([6]; 10 h cultivation at 37° C.) | MIC against P. mirabilis ([11]; 10 h cultivation at 37° C.)
12.5 µg/mL: MIC against C. diversus ([3]; 10 h cultivation at 37° C.) | MIC against E. coli BL21 ([7]; 10 h cultivation at 37° C.) | MIC against S. marcescens ([8]; 10 h cultivation at 37° C.)

PRT1144 (NANDCLSNPCLHGRCTELINEYPCSCDADGTSTQCK; listed as Homo sapiens)
12.5 µg/mL: MIC P. vulgaris ([2]; 10 h cultivation at 37° C.) | MIC A. hydrophila ([5]; 10 h cultivation at 37° C.) | MIC K. pneumonia ([6]; 10 h cultivation at 37° C.) | MIC E. coli BL21 ([7]; 10 h cultivation at 37° C.)
25 µg/mL: MIC C. diversus ([3]; 10 h cultivation at 37° C.) | MIC S. marcescens ([8]; 10 h cultivation at 37° C.) | MIC P. mirabilis ([11]; 10 h cultivation at 37° C.)
50 µg/mL: MIC M. catarrhalis ([1]; 10 h cultivation at 37° C.) | MIC E. cloacae ([4]; 10 h cultivation at 37° C.) | MIC P. aeruginosa ([9]; 10 h cultivation at 37° C.) | MIC [10]

PRT762 (ALDPCVLGTHQCQHVCISDGEGKHHCECSQGYTLNADKKTCS; listed as Homo sapiens)
12.5 µg/mL: MIC (μg/mL) M. catarrhalis ([1]; 10 h cultivation at 37° C.) | MIC (μg/mL) A. hydrophila ([5]; 10 h cultivation at 37° C.) | MIC (μg/mL) K. pneumonia ([6]; 10 h cultivation at 37° C.) | MIC (μg/mL) E. coli BL21 ([7]; 10 h cultivation at 37° C.) | MIC (μg/mL) S. marcescens ([8]; 10 h cultivation at 37° C.)
50 µg/mL: MIC (μg/mL) C. diversus ([3]; 10 h cultivation at 37° C.) | MIC (μg/mL) E. cloacae ([4]; 10 h cultivation at 37° C.) | MIC (μg/mL) P. aeruginosa ([9]; 10 h cultivation at 37° C.) | MIC [10] | MIC (μg/mL) P. mirabilis ([11]; 10 h cultivation at 37° C.)
25 µg/mL: MIC (μg/mL) P. vulgaris ([2]; 10 h cultivation at 37° C.)

PRT819 (YGHNCSQACACFNGASCDPVHGQCHCAPGWMGPSCL; listed as Homo sapiens)
50 µg/mL: MIC (μg/mL) M. catarrhalis ([1]; 10 h cultivation at 37° C.) | MIC (μg/mL) P. vulgaris ([2]; 10 h cultivation at 37° C.)
25 µg/mL: MIC (μg/mL) C. diversus ([3]; 10 h cultivation at 37° C.) | MIC (μg/mL) E. cloacae ([4]; 10 h cultivation at 37° C.) | MIC (μg/mL) E. coli BL21 ([7]; 10 h cultivation at 37° C.) | MIC (μg/mL) S. marcescens ([8]; 10 h cultivation at 37° C.)
12.5 µg/mL: MIC (μg/mL) A. hydrophila ([5]; 10 h cultivation at 37° C.) | MIC (μg/mL) K. pneumonia ([6]; 10 h cultivation at 37° C.) | MIC (μg/mL) P. aeruginosa ([9]; 10 h cultivation at 37° C.) | MIC [10] | MIC (μg/mL) P. mirabilis ([11]; 10 h cultivation at 37° C.)
